Results taken from patent US9371337B2, “β-lactamase inhibitors” (The Regents of the University of California, priority 2011, dated 2016).
Values belong to the molecule of their own block, whether it stands above or below them.

Legend:
Trypsin [1] = assay: Trypsin inhibition; assay type: biochemical; conditions: Table 4h, Trypsin vs AmpC
Trypsin [2] = molecular target: T1, Trypsin (UniProt P00760); assay: Trypsin inhibition; assay type: biochemical
T1 construct: IC50 (Estimated from single concentration measurement); Ki
T1 sequence (P00760 1-246): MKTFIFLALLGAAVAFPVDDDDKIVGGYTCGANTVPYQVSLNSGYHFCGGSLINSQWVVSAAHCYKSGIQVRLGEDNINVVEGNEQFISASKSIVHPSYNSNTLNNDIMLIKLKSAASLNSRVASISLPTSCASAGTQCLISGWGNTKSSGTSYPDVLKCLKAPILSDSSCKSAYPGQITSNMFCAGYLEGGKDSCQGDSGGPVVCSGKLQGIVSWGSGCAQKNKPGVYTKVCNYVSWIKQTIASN

CTX-M-9 β-lactamase = CTX-M-9 β-lactamase (Escherichia coli, UniProt Q9L5C8); assay: biochemical; assay type: biochemical
Method: Reactions were initiated by the addition of 0.3 nM enzyme and monitored at 405 nm.
(§1) To assess the selectivity of the new molecules we determined Ki values against three common serine proteases, Trypsin, Elastase and α-Chymotrypsin, as well as that of a class A β-lactamase, CTX-M-9 (Table 10) (Pouvreau L, et al. (1998), FEBS Lett 423:167-172; Del Mar E G, et al. (1980), Biochemistry 19:468-472; Rodriguez-Martinez J A, et al. (2009), Biotechnol Lett 31:883-887; Chen Y, et al. (2005), J Mol Biol 348:349-362).

AmpC β-lactamase [3] = molecular target: T2, AmpC β-lactamase (Escherichia coli, UniProt P00811); assay: biochemical; assay type: biochemical
T2 construct: made in house
Method: FIG. 18. Representative IC50 curves. […] IC50 curves were obtained by measuring rates (in duplicates) at different inhibitor concentrations (x-axis) and by determining the residual activity (y-axis, in percentage). IC50 values were determined by non-linear regression and Ki values calculated using GraphPad software assuming competitive inhibition.
Sulfonamidomethaneboronic acids were dissolved in 100% DMSO at a concentration of 100 mM; more diluted stocks were prepared as necessary. […] The enzyme was expressed and purified as described (Usher, K. C. et al., Biochemistry 1998, 37, 16082-16092) and CENTA was purchased from Tydock Pharma.
Kinetic measurements were run at room temperature in 50 mM sodium-cacodylate pH 6.5 in the presence of 0.01% Triton-X to prevent non-specific inhibition via compound aggregation. […] (Kettner, C. A. and Shenvi, A. B., J. Biol. Chem. 1984, 259, 15106-15114) Reactions were performed in 1 mL cuvettes with 60 μM CENTA and initiated by adding 1.2 nM enzyme. […] (Weston, G. S. et al., J. Med. Chem. 1998, 41, 4577-4586) The first 180 sec of each reaction were used to measure initial rates. IC50 values were obtained by fitting binding data to a sigmoidal dose-response equation using GraphPad Prism (GraphPad software, Inc). Ki values were determined by the use of Cheng-Prusoff equation. (Cheng, Y. and Prusoff, W. H., Biochem. Pharmacol. 1973, 22, 3099-3108)

[4] = system: clinical strains resistant to third-generation cephalosporins; assay: MIC distribution of third-generation cephalosporins alone or with compounds over clinical strains; assay type: cell-based
Method: The anti-resistance activity of inhibitors was investigated by the determination of the minimum inhibitory concentrations (MICs) of the β-lactam/inhibitor combination necessary to inhibit the growth of clinically-isolated bacteria resistant to third-generation cephalosporins via expression of class A or class C β-lactamases (Table 6).
Susceptibility testing was performed and interpreted following the guidelines of CLSI. (Clinical and Laboratory Standards Institute, Performance standards for antimicrobial susceptibility testing, 20th Informational Supplement, M100-S20 2010) The compounds were dissolved in 50% DMSO, and dilutions were performed using Muller-Hinton medium. An adequate final concentration was obtained to determine the minimum inhibitory concentrations (MICs). The concentration of DMSO was maintained below 5%. The inhibitors were tested for synergy with the third-generation β-lactams ceftazidime and cefotaxime against several clinical bacteria. The ratio of β-lactams to inhibitors was 1:4. Each value reported reflects the average of three independent experiments. […] The Friedman's test and the Wilcoxon signed rank test were used to compare MIC values. Statistical significance was established at p<0.05.

Elastase = Elastase inhibition; assay type: biochemical; conditions: Table 4h, Elastase vs AmpC
From the text: as §1

[5] = molecular target: T3, α-chymotrypsin (bovine pancreatic) (Bos taurus, UniProt P00766); assay: α-Chymotrypsin inhibition; assay type: biochemical
T3 construct: purchased Sigma-Aldrich
Method: α-Chymotrypsin assays were performed in 50 mM Tris buffer pH 7.5 with 0.01% Triton-X. Inhibitor and 0.001 mg/mL enzyme were incubated at their final concentration for 10 min before the reaction was initiated by the addition of 200 μM N-succinyl-Ala-Ala-Pro-Phe p-nitroanilide and monitored at 410 nm.
as §1

Trypsin [6] = molecular target: T1, Trypsin; assay: Trypsin inhibition; assay type: biochemical; conditions: Table 10, Trypsin
From the text: as §1

AmpC β-lactamase [7] = molecular target: T2, AmpC β-lactamase; assay type: biochemical
[8] = third-generation cephalosporins in combination with the compound

T2 sequence (P00811 20-377): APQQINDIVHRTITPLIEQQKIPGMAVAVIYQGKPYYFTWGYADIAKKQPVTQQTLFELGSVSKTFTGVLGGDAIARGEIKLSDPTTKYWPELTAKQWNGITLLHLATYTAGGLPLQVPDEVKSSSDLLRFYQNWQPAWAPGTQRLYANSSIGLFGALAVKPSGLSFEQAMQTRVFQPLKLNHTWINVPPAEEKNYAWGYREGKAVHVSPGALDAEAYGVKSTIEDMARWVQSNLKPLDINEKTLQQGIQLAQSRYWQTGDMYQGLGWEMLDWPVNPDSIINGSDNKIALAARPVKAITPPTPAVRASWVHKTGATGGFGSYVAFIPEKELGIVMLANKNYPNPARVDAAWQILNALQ
Sequence of CTX-M-9 β-lactamase (Q9L5C8 29-291): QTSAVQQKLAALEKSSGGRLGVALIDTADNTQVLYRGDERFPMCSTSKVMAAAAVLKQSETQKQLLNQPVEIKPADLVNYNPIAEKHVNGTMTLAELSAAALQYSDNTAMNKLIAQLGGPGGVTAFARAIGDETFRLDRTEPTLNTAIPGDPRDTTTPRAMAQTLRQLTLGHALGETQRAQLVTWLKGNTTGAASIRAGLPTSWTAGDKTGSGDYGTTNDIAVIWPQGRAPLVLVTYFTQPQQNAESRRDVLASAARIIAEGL

SMILES: O=S(=O)(NCB(O)O)c1ccc(-c2nn[nH]n2)cc1Cl [CR190, [2-chloro-4-(3-tetrazol-5-yl)benzensulfonylamino]methaneboronic acid]
Selectivity vs AmpC (comparison of IC50 values) (Trypsin [1]): 1187500
Percentage activity with 100 μM inhibitor (Trypsin [2]; Table 4b, 100 μM inhibitor): 95
Percentage inhibition with 100 μM inhibitor (Trypsin [2]; Table 4c, 100 μM inhibitor): 5
potency estimated from few doses (Trypsin [2]; read-out: IC50 (Estimated from single concentration measurement), Table 4e): 1900 µM
IC50 (CTX-M-9 β-lactamase): 4 µM
Ki (CTX-M-9 β-lactamase; Table 8, read-out: Ki vs CTX-M-9): 1.4 µM
Selectivity vs AmpC (comparison of IC50 values) (CTX-M-9 β-lactamase; Table 4h, CTX-M-9 vs AmpC): 2346
potency estimated from few doses (CTX-M-9 β-lactamase; read-out: IC50 (Estimated from single concentration measurement)): 4 µM
inhibition at 16 µM (CTX-M-9 β-lactamase; read-out: Percentage inhibition with 16 μM inhibitor): 81%
IC50 (AmpC β-lactamase [3]): 0.0016 µM
Ki (AmpC β-lactamase [3]; Ki (from multi- or single concentration measurements), Table 4g): 0.0002 µM
Ki (AmpC β-lactamase [3]; Ki Vs AmpC, Table 7): 0.0002 µM
Ki (AmpC β-lactamase [3]; Ki vs AmpC, Table 8): 0.0002 µM
Ki (AmpC β-lactamase [3]; Ki, Table 5): 0.0002 µM
Ki (AmpC β-lactamase [3]; Ki, Table 10, AmpC): 0.0002 µM
Ki (AmpC β-lactamase [3]; Ki, running text and FIG. 18, substrate CENTA 105 μM): 0.0002 µM
Ligand efficiency (AmpC β-lactamase [3]; Table 5): 0.65
improved affinity compared to CR157 (AmpC β-lactamase [3]; ratio of Ki values): 6 fold
clinical isolates for which MICs dropped into the susceptible range (MICs≦1 μg/mL) ([4]; cephalosporins combined with the compound): 50%
MIC 25% percentile [4, 8]: 0.5 µg/mL
MIC 75% percentile [4, 8]: 2.0 µg/mL
Selectivity vs AmpC (comparison of IC50 values) (Elastase): 30784
activity at 100 µM ([5]; Table 4b, 100 μM inhibitor, read-out: Percentage activity with 100 μM inhibitor): 85%
potency estimated from few doses ([5]; Table 4e, read-out: IC50 (Estimated from single concentration measurement)): 567 µM
Ki ([5]; Table 10, α-Chymotrypsin): 141 µM
Selectivity vs AmpC (comparison of IC50 values) ([5]; Table 4h, Chymotrypsin vs AmpC): 354167
inhibition at 100 µM ([5]; read-out: Percentage inhibition with 100 μM inhibitor): 15%
Ki (Trypsin [6]): 350 µM
melting point: 110 to 113 °C (dec.)
type of inhibition (AmpC β-lactamase [7]; Lineweaver-Burk analysis, competition with substrate CENTA): competitive
time dependence of inhibition (incubation effect, off-rate) (AmpC β-lactamase [7]; enzyme incubation and dilution experiments): slow off-rate

melting point: 185 to 188 °C
SMILES: O=S(=O)(Cc1cccs1)NCB(O)O [Compound 10]
